Measured values reported in patent US7342018B2, “Urokinase inhibitors and uses thereof” (Wilex AG, priority 1998, dated 2008).

Key:
[1] = target: T1, Factor XIIa (Homo sapiens, UniProt P00748); experiment: In vitro inhibition of serine proteases: factor XIIa; format: biochemical
T1 sequence (P00748 373-615 limits assumed): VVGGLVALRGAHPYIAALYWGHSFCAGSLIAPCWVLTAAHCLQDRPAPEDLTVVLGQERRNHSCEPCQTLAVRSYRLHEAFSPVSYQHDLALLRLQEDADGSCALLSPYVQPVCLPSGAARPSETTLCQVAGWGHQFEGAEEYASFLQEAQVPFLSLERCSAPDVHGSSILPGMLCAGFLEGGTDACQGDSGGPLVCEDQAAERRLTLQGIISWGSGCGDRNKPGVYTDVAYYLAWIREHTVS
Method: (§1) To determine the inhibitory activity, 200 μl of Tris buffer (0.05 mol/l, containing the inhibitor, 0.154 mol/l NaCl, 5% ethanol pH 8.0), 25 μl of substrate (Pefachrome UK or Bz-βAla-Gly-Arg-pNA in H2O; Pentapharm Ltd., Basle, Switzerland) and 50 μl of sc-urokinase (Ribosepharm GmbH, Haan, Germany) were incubated at 25° C. After 3 min the reaction was stopped by adding 25 μl of acetic acid (50%), and the absorption at 405 nm was determined by means of a Microplate Reader (MR 5000, Dynatech, Denkendorf, Germany). Ki values were determined according to Dixon by linear regression using a computer program. The Ki values are the mean values of at least three determinations with a standard deviation of less than 25%.
(§2) The inhibition activities of the enzymes used were determined according to the principle described in Example 3.

[2] = Solubility in Tris buffer; conditions: Tris buffer (pH 7.3)
[3] = system: human ovarian carcinoma cells OV-MZ-6; experiment: Cytotoxicity determination (tetrazolium salt conversion, Promega); format: cell-based
Source text: To determine cell proliferation/cytotoxicity a commercially available test was used (Promega) which is based on the cellular conversion of a tetrazolium salt. The colored product resulting from this reaction can be quantified by means of an ELISA spectrometer (ICN flow). The synthetic inhibitor (open circles) had no effect on the growth of the human ovarian carcinoma cells OV-MZ-6 (FIG. 1) when compared with the solvent alone (closed circles). Thus, the inventive uPA inhibitor is not cytotoxic in pharmacologically effective concentrations up to 40 μM.

[4] = system: human breast carcinoma cells; experiment: Fibrin matrix degradation assay (D dimer ELISA); format: cell-based; conditions: different concentrations, 4 h (FIG. 2)
Method: To study the potential of tumor cells for breaking down an extracellular matrix, a fibrin matrix degradation assay was developed and used. A greater proteolytic activity of the tumor cells leads to a higher concentration of fibrin degradation products in the matrix supernatant. The matrix degradation capacity corresponds to the concentration of fibrin degradation products which are determined by means of ELISA (D dimer).
The fibrin gels were prepared in 24-well culture dishes from […] of fibrinogen (50 mg/ml) in PBS (pH 7.4), by 50 μl of thrombin (10 U/ml) and 50 μl of CaCl2 (150 mM) per well after incubation at 37° C. for 30 minutes. 2×10^5 breast carcinoma cells were seeded on said fibrin matrix in 1 ml of DMEM culture medium plus 10% fetal calf serum and 2 μg of Glu-plasminogen, and incubated for 4 h. The supernatant was then centrifuged, in order to remove the cells, and the fibrin degradation products were quantified by means of ELISA.

[5] = target: Tryptase (Homo sapiens, UniProt Q15661); experiment: In vitro inhibition of serine proteases: tryptase; format: biochemical
Method: as §1, §2

[6] = system: human breast carcinoma cells (MDA-BA-231); experiment: Human breast cancer cells in nude mice; format: in vivo, Balb/c nude mice; conditions: 1.2 mg/kg i.p. twice a week, vs control (FIG. 6)
Method: In order to test the in vivo efficacy of the inhibitor for inhibiting tumor growth of human breast carcinoma cells (MDA-BA-231), 6×10^6 cells were injected subcutaneously into the right flank of Balb/c nude mice (4-6 weeks old). The tumor cells were preincubated with the synthetic uPA inhibitor prior to inoculation. After 24 h, the mice were treated twice a week intraperitoneally with a dose of 1.2 mg/kg body weight as described under A). The tumor size was determined weekly by measuring the two largest diameters.

[7] = Phase I clinical trial in healthy male volunteers (WX/50-001); format: in vivo, human; conditions: for tolerability: all dose levels
Method: In the first clinical trial with WX-UK1 (WX/50-001) the drug was investigated in a double-blind, randomized, three-way cross-over, placebo controlled phase I study focussing on pharmacokinetics, pharmacodynamics, safety, and tolerability of increasing doses of WX-UK1.
In this study six ascending i.v. Doses of WX-UK1 in the range of 0.01 to 0-3 mg/kg were administered and each dose was given to groups of six healthy male volunteers.

[8] = target: T2, Trypsin (Bos taurus, UniProt P00760); experiment: In vitro inhibition of serine proteases: trypsin; format: biochemical
T2 construct: gene PRSS1
T2 sequence (P00760 24-246): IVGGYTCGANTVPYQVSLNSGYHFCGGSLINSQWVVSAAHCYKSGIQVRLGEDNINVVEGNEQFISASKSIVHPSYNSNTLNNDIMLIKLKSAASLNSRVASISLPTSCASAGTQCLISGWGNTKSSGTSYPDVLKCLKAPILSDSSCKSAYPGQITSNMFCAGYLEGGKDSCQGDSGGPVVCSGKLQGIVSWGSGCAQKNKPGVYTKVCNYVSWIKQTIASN
Method: Ki values were determined according to Dixon by linear regression using a computer program.

Sequence of Tryptase (Q15661 31-275): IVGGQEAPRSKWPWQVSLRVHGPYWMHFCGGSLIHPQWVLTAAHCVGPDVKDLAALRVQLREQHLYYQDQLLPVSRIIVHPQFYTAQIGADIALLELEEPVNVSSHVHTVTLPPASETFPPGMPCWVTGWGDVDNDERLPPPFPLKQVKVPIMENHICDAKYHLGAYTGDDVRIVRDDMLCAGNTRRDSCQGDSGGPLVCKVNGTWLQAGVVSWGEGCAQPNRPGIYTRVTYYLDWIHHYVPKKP

With `CCOC(=O)N1CCN(C(=O)[C@H](Cc2cccc(C(=N)N)c2)NS(=O)(=O)c2c(C(C)C)cc(C(C)C)cc2C(C)C)CC1.Cl` [uPA inhibitor, Nα-2,4,6-Triisopropylphenylsulfonyl-(L)-3-amidinophenylalanine 4-ethoxycarbonylpiperazide hydrochloride] the Ki [1] was 13 µM, the solubility ([2]; addition of 5% DMSO) was 10^−3 mol/l and the solubility ([2]; addition of 5% ethanol) was 2×10^−4 moll. The “effect on the growth of OV-MZ-6 cells” value ([3]; compared with the solvent alone (FIG. 1)) was “no effect”, the cytotoxicity ([3]; concentrations up to 40 μM) was “not cytotoxic” and the “inhibition of fibrin matrix degradation by breast carcinoma cells” value [4] was “significant inhibition”. For the same compound, the Ki [5] was 6.3 µM, the tumor volume increase [6] was “significantly more slowly” and the “changes in vital signs, ECG parameters, general safety laboratory parameters and adverse event profiles” value ([7]; attributable to the study drug) was “No changes”. The “mean increases of coagulation parameters PT, aPTT and TT” value ([7]; doses of 0.05 mg/kg and higher, end of infusion, 0-5% with placebo) was 6-13%, the “dose proportionality in PK studies” value ([7]; healthy volunteers) was “good dose proportionality” and the “systemic and local safety profile” value ([7]; healthy volunteers) was “advantageous systemic and local safety profile”. The bleeding times ([7]; human, in vivo) was “unchanged”, the drug-induced hemolysis ([7]; human, in vivo) was “no indication” and the “time for coagulation parameters to return to baseline” value ([7]; human, in vivo) was ≤ 15 min. The “time of maximum plasma concentrations” value ([7]; i.v. infusion (FIG. 10)) was “at the end of the 30 min. infusion period”, the “mean terminal half lives” value ([7]; i.v. infusion, healthy male volunteers) was 10 to 12 h and the tolerability ([7]; i.v. infusion, healthy volunteers, listed as WK-UK1, hydrochloride) was “well tolerated”. For the same compound, the tolerability ([7]; i.v. infusion, healthy volunteers, listed as WX-UK1, hydrochloride) was “very well tolerated”, the “renal excretion of the parent compound” value ([7]; share of the dose) was “less then one percent” and the Ki [8] was 0.037 µM.
